The target in the assay is T1, Human Farnesoid X Receptor (NR1H4, FXR) (Homo sapiens, UniProt Q96RI1).
T1 sequence (Q96RI1 1-486): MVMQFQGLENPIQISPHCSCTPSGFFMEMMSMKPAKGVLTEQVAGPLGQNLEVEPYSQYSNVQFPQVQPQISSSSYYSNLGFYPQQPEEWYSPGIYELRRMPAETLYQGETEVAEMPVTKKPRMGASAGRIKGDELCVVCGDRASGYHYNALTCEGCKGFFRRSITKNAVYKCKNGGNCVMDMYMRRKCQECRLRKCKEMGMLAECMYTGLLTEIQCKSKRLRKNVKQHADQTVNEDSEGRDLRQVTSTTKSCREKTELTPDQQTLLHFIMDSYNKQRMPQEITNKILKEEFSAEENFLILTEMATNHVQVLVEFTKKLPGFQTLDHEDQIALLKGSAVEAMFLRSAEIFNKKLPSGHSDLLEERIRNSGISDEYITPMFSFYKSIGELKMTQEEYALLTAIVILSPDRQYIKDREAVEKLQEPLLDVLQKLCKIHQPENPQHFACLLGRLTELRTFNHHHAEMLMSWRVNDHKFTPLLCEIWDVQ
The assay can be described thus: FXR reporter assay, EC50 and efficacy (Indigo Biosciences luciferase reporter cells). It is filed as cell-based. As to conditions: for Efficacy: maximum point on the dose response curve, GW4064 designated as 100%. The method, then: The compounds of the invention were assayed for agonist activity at the FXR receptor.
Dose-response assays were performed as described in the technical manual of the Human Farnesoid X Receptor (NR1H4, FXR) Reporter Assay System (Indigo Biosciences Human Farnesoid X Receptor (NR1H4, FXR) Reporter Assay System, Technical Manual (version 7.1b), at the World Wide Web (www)indiqobiosciences.com).
FXR reporter cells consisting of an FXR-responsive promoter gene functionally linked to the luciferase gene were defrosted and seeded into a 96-well plate and these cells were immediately dosed with the test compounds at different concentrations (10-0.05 μM) according to the manufacturer's protocol. […] Following this, the induction of luciferase activity, which is the measure of the agonist activity, was quantified by using luminometer (TECAN) according to the manufacturer's protocol.

For the compound `CC[C@H]1[C@@H](O)[C@@H]2[C@H](CC[C@]3(C)[C@@H]([C@H](C)CCC(=O)NS(=O)(=O)c4cccc(F)c4)CC[C@@H]23)[C@@]2(C)CC[C@@H](O)[C@H](F)[C@@H]12` [Compound 16, N-(3α,7α-Dihydroxyl-4β-fluoro-6α-ethyl-5β-cholan-24-oyl)-m-fluorophenyl sulfonamide], the midpoint of the response, the EC50, lay at 46 nM and the Efficacy is 143%.
Take `CC[C@@H]1[C@@H]2[C@@H](F)[C@H](O)CC[C@]2(C)C2CC[C@@]3(C)C(CCC3[C@H](C)CCNC(=O)NS(=O)(=O)c3ccc(C)cc3)C2[C@@H]1O` (stereo partly drawn) [Compound 1, N,N′-(3α,7α-Dihydroxyl-4β-fluoro-6α-ethyl-24-nor-5β-cholan-23-yl)-p-toluene sulfonyl urea]: the midpoint of the response, the EC50, lay at 18 nM and the Efficacy worked out at 193%.
For `CC[C@H]1[C@@H](O)[C@@H]2[C@H](CC[C@]3(C)[C@@H]([C@H](C)CCC(=O)NS(=O)(=O)c4ccc(F)cc4)CC[C@@H]23)[C@@]2(C)CC[C@@H](O)[C@H](F)[C@@H]12` [Compound 15, N-(3α,7α-Dihydroxyl-4β-fluoro-6α-ethyl-5β-cholan-24-oyl)-p-fluorobenzene sulfonamide], the EC50 (in general, the concentration giving half of the maximal effect) came to 38 nM and the Efficacy is 98%.
For `CC[C@H]1[C@@H](O)[C@@H]2[C@H](CC[C@]3(C)[C@@H]([C@H](C)CCC(=O)NS(=O)(=O)c4cccc(C(F)(F)F)c4)CC[C@@H]23)[C@@]2(C)CC[C@@H](O)[C@H](F)[C@@H]12` [Compound 19, N-(3α,7α-Dihydroxyl-4β-fluoro-6α-ethyl-5β-cholan-24-oyl)-3-trifluoromethylphenyl sulfonamide], in that order: 50 nM and 136%.
As to `CC[C@@H]1[C@@H]2[C@@H](F)[C@H](O)CC[C@]2(C)C2CC[C@@]3(C)C(CCC3[C@H](C)CCNC(=O)NS(=O)(=O)c3cccc(F)c3)C2[C@@H]1O` (stereo partly drawn) [Compound 7, N,N′-(3α,7α-Dihydroxyl-4β-fluoro-6α-ethyl-24-nor-5β-cholan-23-yl)-m-fluorobenzene sulfonyl urea], the EC50 was determined as 38 nM and the Efficacy is 131%.
On to `CC[C@H]1[C@@H](O)[C@@H]2[C@H](CC[C@]3(C)[C@@H]([C@H](C)CCC(=O)NS(=O)(=O)C4CC4)CC[C@@H]23)[C@@]2(C)CC[C@@H](O)[C@H](F)[C@@H]12` [Comparative compound B, N-(3α,7α-Dihydroxyl-4β-fluoro-6α-ethyl-5β-cholan-24-oyl)-cyclopropyl sulfonamide, reference compound], for which the EC50 came out at 158 nM and the Efficacy came to 132%.
`CC[C@H]1[C@@H](O)[C@@H]2[C@H](CC[C@]3(C)[C@@H]([C@H](C)CCC(=O)NS(=O)(=O)c4ccccc4F)CC[C@@H]23)[C@@]2(C)CC[C@@H](O)[C@H](F)[C@@H]12` [Compound 17, N-(3α,7α-Dihydroxyl-4β-fluoro-6α-ethyl-5β-cholan-24-oyl)-o-fluorophenyl sulfonamide]: the EC50 worked out at 34 nM and the Efficacy was found to be 121%.
For the compound `CC[C@@H]1[C@@H]2[C@@H](F)[C@H](O)CC[C@]2(C)C2CC[C@@]3(C)C(CCC3[C@H](C)CCNC(=O)NS(=O)(=O)c3ccccc3C)C2[C@@H]1O` (stereo partly drawn) [Compound 5, N,N′-(3α,7α-Dihydroxyl-4β-fluoro-6α-ethyl-24-nor-5β-cholan-23-yl)-o-toluene sulfonyl urea], a half-maximal effect (EC50) was put at 28 nM and the Efficacy was determined as 166%.
`CC[C@@H]1[C@@H]2[C@@H](F)[C@H](O)CC[C@]2(C)C2CC[C@@]3(C)C(CCC3[C@H](C)CCNC(=O)NS(=O)(=O)c3ccccc3F)C2[C@@H]1O` (stereo partly drawn) [Compound 8, N,N′-(3α,7α-Dihydroxyl-4β-fluoro-6α-ethyl-24-nor-5β-cholan-23-yl)-o-fluorobenzene sulfonyl urea] showed an EC50 of 43 nM and an Efficacy of 159%.
The compound `CC[C@@H]1[C@@H]2[C@@H](F)[C@H](O)CC[C@]2(C)C2CC[C@@]3(C)C(CCC3[C@H](C)CCNC(=O)NS(=O)(=O)c3ccccc3C(F)(F)F)C2[C@@H]1O` (stereo partly drawn) [Compound 11, N,N′-(3α,7α-Dihydroxyl-4β-fluoro-6α-ethyl-24-nor-5β-cholan-23-yl)-o-(trifluoromethyl)benzene sulfonyl urea] came in with an EC50 of 123 nM and an Efficacy of 104%.
`CC[C@@H]1[C@@H]2[C@@H](F)[C@H](O)CC[C@]2(C)C2CC[C@@]3(C)C(CCC3[C@H](C)CCNC(=O)NS(=O)(=O)c3ccc(OC(F)(F)F)cc3)C2[C@@H]1O` (stereo partly drawn) [Compound 12, N,N′-(3α,7α-Dihydroxyl-4β-fluoro-6α-ethyl-24-nor-5β-cholan-23-yl)-4-(trifluoromethoxy)benzene sulfonyl urea]: a half-maximal effect (EC50) was put at 27 nM and the Efficacy was 176%.
On the same counts, the results for `CC[C@@H]1[C@@H]2[C@@H](F)[C@H](O)CC[C@]2(C)C2CC[C@@]3(C)C(CCC3[C@H](C)CCNC(=O)NS(=O)(=O)c3cccc(C)c3)C2[C@@H]1O` (stereo partly drawn) [Compound 4, N,N′-(3α,7α-Dihydroxyl-4β-fluoro-6α-ethyl-24-nor-5β-cholan-23-yl)-m-toluene sulfonyl urea] are 23 nM and 148%.
In the case of `CC[C@@H]1[C@@H]2[C@@H](F)[C@H](O)CC[C@]2(C)C2CC[C@@]3(C)C(CCC3[C@H](C)CCNC(=O)NS(=O)(=O)c3ccc(C(C)(C)C)cc3)C2[C@@H]1O` (stereo partly drawn) [Compound 3, N,N′-(3α,7α-Dihydroxyl-4β-fluoro-6α-ethyl-24-nor-5β-cholan-23-yl)-4-(tert-butyl) benzene sulfonyl urea], the EC50 was 19 nM and the Efficacy worked out at 151%.
`CC[C@@H]1[C@@H]2[C@@H](F)[C@H](O)CC[C@]2(C)C2CC[C@@]3(C)C(CCC3[C@H](C)CCNC(=O)NS(=O)(=O)c3ccc(OC)cc3)C2[C@@H]1O` (stereo partly drawn) [Compound 13, N,N′-(3α,7α-Dihydroxyl-4β-fluoro-6α-ethyl-24-nor-5β-cholan-23-yl)-p-methoxybenzene sulfonyl urea]: the EC50 came to 48 nM and the Efficacy is 250%.
`CC[C@H]1[C@@H](O)C2C3CCC([C@H](C)CCNC(=O)NS(=O)(=O)c4ccccc4)[C@@]3(C)CCC2[C@@]2(C)CC[C@@H](O)C[C@@H]12` (stereo partly drawn) [Comparative compound A, N,N′-(3α,7α-Dihydroxyl-6α-ethyl-24-nor-5β-cholan-23-yl)-benzene sulfonyl urea, reference compound] yielded an EC50 of 32 nM and an Efficacy of 147%.
For `CC[C@H]1[C@@H](O)[C@@H]2[C@H](CC[C@]3(C)[C@@H]([C@H](C)CCC(=O)NS(C)(=O)=O)CC[C@@H]23)[C@@]2(C)CC[C@@H](O)[C@H](F)[C@@H]12` [Comparative compound C, N-(3α,7α-Dihydroxyl-4β-fluoro-6α-ethyl-5β-cholan-24-oyl)-methyl sulfonamide, reference compound], the response was half-maximal at 192 nM (EC50) and the Efficacy was found to be 130%.
For the compound `CC[C@@H]1[C@@H]2[C@@H](F)[C@H](O)CC[C@]2(C)C2CC[C@@]3(C)C(CCC3[C@H](C)CCNC(=O)NS(=O)(=O)c3ccc(F)cc3)C2[C@@H]1O` (stereo partly drawn) [Compound 6, N,N′-(3α,7α-Dihydroxyl-4β-fluoro-6α-ethyl-24-nor-5β-cholan-23-yl)-p-fluorobenzene sulfonyl urea], it took 32 nM to reach a half-maximal effect (EC50) and the Efficacy is recorded as 187%.
For `CC[C@@H]1[C@@H]2[C@@H](F)[C@H](O)CC[C@]2(C)C2CC[C@@]3(C)C(CCC3[C@H](C)CCNC(=O)NS(=O)(=O)c3ccc(C(F)(F)F)cc3)C2[C@@H]1O` (stereo partly drawn) [Compound 9, N,N′-(3α,7α-Dihydroxyl-4β-fluoro-6α-ethyl-24-nor-5β-cholan-23-yl)-p-(trifluoromethyl)benzene sulfonyl urea], the EC50 is 50 nM and the Efficacy is recorded as 158%.
